The assay deals with T1, TMV CP (TMV coat protein) (Tobacco mosaic virus (vulgare), UniProt P69687).
T1 construct: NT-647 dye labelled for MST
The experiment in a line: microscale thermophoresis (Monolith NT.[…], NT-647-labelled protein). Format: binding.

The structures appear in SMILES notation.

These results are taken from article PMC6661780, “Design, synthesis, antiviral bioactivities and interaction mechanisms of penta-1,4-diene-3-one oxime ether derivatives containing a quinazolin-4(3H)-one scaffold” (BMC Chemistry, 2019).

T1 sequence (P69687 2-159 limits assumed): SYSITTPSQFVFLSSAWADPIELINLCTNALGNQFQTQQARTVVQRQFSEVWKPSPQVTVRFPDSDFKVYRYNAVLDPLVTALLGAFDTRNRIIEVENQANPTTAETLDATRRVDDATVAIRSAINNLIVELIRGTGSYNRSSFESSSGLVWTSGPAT

With `O=c1c2ccccc2ncn1CO/N=C(\C=C\c1ccccn1)/C=C/c1ccccc1OCc1ccc(Cl)cc1Cl` [8k], binding was characterised by a dissociation constant (Kd) of 970 ± 690 nM.

The term Kd denotes a measure of binding affinity in units of concentration. Read a high Kd as a looser complex.
